ChEMBL document CHEMBL5154756 (Bioorg Med Chem, 2022)
The source made the active and inactive calls. The calls are words filed in the database; no cut-off is given here.

Assays:
[1] = Selectivity ratio of IC50 for human Hep3B cells to IC50 for human HT-29 cells; assay type: functional
HT-29 [2] = assay: Antiproliferative activity against human HT-29 cells over expressing GLUT1 measured after 72 hrs by MTT assay; assay type: functional, cell-based; conditions: HT-29, 72 h
MCF7 = assay: Antiproliferative activity against human MCF7 cells over expressing GLUT1 measured after 72 hrs by MTT assay; assay type: functional, cell-based; conditions: MCF7, 72 h
Hep 3B2 = assay: Antiproliferative activity against human Hep3B cells measured after 72 hrs by MTT assay; assay type: functional, cell-based
[3] = Selectivity ratio of IC50 for human Hep3B cells to IC50 for human MCF7 cells; assay type: functional
HT-29 [4] = assay: Antiproliferative activity against human HT-29 cells over expressing GLUT1 assessed as cell viability at 8 uM measured after 48 hrs in presence of GLUT1-specific inhibitor quercetin by MTT assay relative to control; assay type: functional; conditions: read-out: Activity
HT-29 [5] = assay: Antiproliferative activity against human HT-29 cells over expressing GLUT1 assessed as cell viability at 8 uM measured after 48 hrs by MTT assay relative to control; assay type: functional; conditions: read-out: Activity
Tubulin (Homo sapiens) [6] = target: T1, Tubulin (Homo sapiens) (UniProt P68371+Q9H4B7+P0DPH7+P68366+Q13509+Q71U36+P04350+Q3ZCM7+P07437+P68363+Q9BQE3+Q6PEY2+Q13885+Q9BVA1+Q9BUF5); assay: Inhibition of tubulin polymerization in human A549 cells assessed as appearance of short microtubule at 0.766 uM measured after 24 hrs by immunofluorescence confocal microscopic analysis; assay type: cell-based
Tubulin (Homo sapiens) [7] = target: T1, Tubulin (Homo sapiens); assay: Inhibition of tubulin polymerization in human A549 cells assessed as appearance of wrapped microtubule around nucleus at 0.766 uM measured after 24 hrs by immunofluorescence confocal microscopic analysis; assay type: cell-based
[8] = Cytotoxicity against HUVEC measured after 72 hrs by MTT assay; assay type: toxicity, cell-based; conditions: human, HUVEC cells
HT-29 [9] = assay: Antiproliferative activity against human HT-29 cells over expressing GLUT1 assessed as cell viability at 4 uM measured after 48 hrs in presence of GLUT1-specific inhibitor quercetin by MTT assay relative to control; assay type: functional; conditions: read-out: Activity
Tubulin (Sus scrofa) = Tubulin (Sus scrofa) (UniProt P02554+P02550); assay: Inhibition of porcine brain tubulin polymerization assessed as inhibition of microtubule polymerization measured at 1 min interval for 90 mins by microplate reader method; conditions: dose 12.5-25 µM, DDE = dose-dependent effect
Tubulin (Sus scrofa), sequence (P02550 whole entry, looked up): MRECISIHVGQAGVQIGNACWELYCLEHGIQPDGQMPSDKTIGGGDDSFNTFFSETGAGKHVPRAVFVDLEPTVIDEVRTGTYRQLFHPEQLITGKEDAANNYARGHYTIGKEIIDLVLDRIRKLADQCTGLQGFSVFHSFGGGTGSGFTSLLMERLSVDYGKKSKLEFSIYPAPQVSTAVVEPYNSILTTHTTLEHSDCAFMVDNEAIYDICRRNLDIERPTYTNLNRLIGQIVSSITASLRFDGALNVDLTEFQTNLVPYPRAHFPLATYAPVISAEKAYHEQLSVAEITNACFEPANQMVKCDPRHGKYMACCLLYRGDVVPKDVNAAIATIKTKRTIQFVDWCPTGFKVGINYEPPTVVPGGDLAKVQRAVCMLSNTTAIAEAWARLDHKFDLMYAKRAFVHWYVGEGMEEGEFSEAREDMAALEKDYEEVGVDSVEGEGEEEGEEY
Tubulin (Sus scrofa), sequence (P02554 whole entry, looked up): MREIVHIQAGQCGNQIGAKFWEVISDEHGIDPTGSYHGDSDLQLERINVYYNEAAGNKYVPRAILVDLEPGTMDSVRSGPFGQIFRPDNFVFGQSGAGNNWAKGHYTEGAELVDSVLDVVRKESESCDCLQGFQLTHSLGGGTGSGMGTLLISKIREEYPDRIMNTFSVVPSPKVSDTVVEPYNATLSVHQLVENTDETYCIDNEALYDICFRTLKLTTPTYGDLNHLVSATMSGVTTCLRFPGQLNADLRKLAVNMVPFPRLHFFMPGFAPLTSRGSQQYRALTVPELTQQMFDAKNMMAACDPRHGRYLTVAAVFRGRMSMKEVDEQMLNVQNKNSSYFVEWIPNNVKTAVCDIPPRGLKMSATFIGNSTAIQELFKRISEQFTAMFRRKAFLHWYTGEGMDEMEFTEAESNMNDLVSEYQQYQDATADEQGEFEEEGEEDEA

HT-29 [10] = assay: Antiproliferative activity against human HT-29 cells over expressing GLUT1 assessed as cell viability at 4 uM measured after 48 hrs by MTT assay relative to control; assay type: functional; conditions: read-out: Activity
HT-29 [11] = assay: Antiproliferative activity against human HT-29 cells over expressing GLUT1 assessed as cell viability measured after 48 hrs in presence of GLUT1-specific inhibitor quercetin by MTT assay relative to control; assay type: functional
HT-29 [12] = assay: Antiproliferative activity against human HT-29 cells over expressing GLUT1 assessed as cell viability measured after 48 hrs by MTT assay relative to control; assay type: functional

SMILES | IC50 (HT-29 [2]) [µM] | IC50 (MCF7) [µM] | Ratio IC50 [1] | IC50 (Hep 3B2) [µM] | Ratio IC50 [3] | also measured
COc1cc2c(c(OC)c1OC)-c1ccc(OC)c(=O)cc1[C@@H](NC(=O)CCCC(=O)OC[C@H]1OC(O)[C@@H](O)[C@@H](O)[C@@H]1O)CC2 (some centres not stated) | > 10 | > 10 | – | > 10 | – | –
COc1cc2c(c(OC)c1OC)-c1ccc(OC)c(=O)cc1[C@@H](NC(=O)CCC(=O)OC[C@H]1OC(O)[C@H](O)[C@@H](O)[C@@H]1O)CC2 (some centres not stated) | 1.09 | 1.15 | 5.83 | 6.35 | 5.52 | –
COc1cc2c(c(OC)c1OC)-c1ccc(OC)c(=O)cc1[C@@H](NC(C)=O)CC2 [COLCHICINE] | – | 0.043 | – | 0.14 | – | IC50 at 72 h [8]: 0.012 µM; Activity (HT-29 [11]): 14.8%; Activity (HT-29 [12]): 12.7%
COc1cc2c(c(OC)c1OC)-c1ccc(OC)c(=O)cc1[C@@H](NC(=O)CSCC(=O)OC[C@H]1OC(O)[C@H](O)[C@@H](O)[C@@H]1O)CC2 (some centres not stated) | 1.16 | 3.56 | 7.98 | 9.26 | 2.6 | –
COc1cc2c(c(OC)c1OC)-c1ccc(OC)c(=O)cc1[C@@H](NC(=O)CCC(=O)OC[C@H]1OC(O)[C@@H](O)[C@@H](O)[C@@H]1O)CC2 (some centres not stated) | – | 0.67 | – | 2.91 | 4.34 | –
COc1cc2c(c(OC)c1OC)-c1ccc(OC)c(=O)cc1[C@@H](NC(=O)CCCCC(=O)OC[C@H]1OC(O)[C@H](O)[C@@H](O)[C@@H]1O)CC2 (some centres not stated) | 9.73 | > 10 | – | > 10 | – | –
COc1cc2c(c(OC)c1OC)-c1ccc(OC)c(=O)cc1[C@@H](NC(=O)COCC(=O)OC[C@H]1OC(O)[C@H](O)[C@@H](O)[C@@H]1O)CC2 (some centres not stated) | 0.24 | 3.08 | 19.04 | 4.57 | 1.48 | –
COc1cc2c(c(OC)c1OC)-c1ccc(OC)c(=O)cc1[C@@H](NC(=O)CCCCC(=O)OC[C@H]1OC(O)[C@@H](O)[C@@H](O)[C@@H]1O)CC2 (some centres not stated) | > 10 | > 10 | – | > 10 | – | –
COc1cc2c(c(OC)c1OC)-c1ccc(OC)c(=O)cc1[C@@H](NC(=O)CCCC(=O)OC[C@H]1OC(O)[C@H](O)[C@@H](O)[C@@H]1O)CC2 (some centres not stated) | 4.14 | > 10 | – | > 10 | – | –
COc1cc2c(c(OC)c1OC)-c1ccc(OC)c(=O)cc1[C@@H](NC(=O)CSCC(=O)OC[C@H]1OC(O)[C@@H](O)[C@@H](O)[C@@H]1O)CC2 (some centres not stated) | 2.11 | 6.05 | – | > 10 | – | –

Now from value to compound, other results behind:

IC50 (HT-29 [2]) [µM] | IC50 (MCF7) [µM] | SMILES | Ratio IC50 [1] | IC50 (Hep 3B2) [µM] | Ratio IC50 [3] | also measured
6.47 | 7.17 | COc1cc2c(c(OC)c1OC)-c1ccc(OC)c(=O)cc1[C@@H](NC(=O)CCCC(=O)O[C@H]1[C@H](O)[C@@H](CO)OC(O)[C@@H]1O)CC2 (some centres not stated) | 1.38 | 8.91 | 1.24 | –
> 10 | > 10 | COc1cc2c(c(OC)c1OC)-c1ccc(OC)c(=O)cc1[C@@H](NC(=O)CCCCC(=O)O[C@H]1[C@H](O)[C@@H](CO)OC(O)[C@@H]1O)CC2 (some centres not stated) | – | > 10 | – | –
0.79 | 0.65 | COc1cc2c(c(OC)c1OC)-c1ccc(OC)c(=O)cc1[C@@H](NC(=O)CSCC(=O)O[C@H]1[C@H](O)[C@@H](CO)OC(O)[C@@H]1O)CC2 (some centres not stated) | 10.84 | 8.56 | 13.17 | viability at 8 µM (HT-29 [4]): 20.1%; viability at 8 µM (HT-29 [5]): 12.5%; inhibition (Tubulin (Homo sapiens) [6]): Active; inhibition (Tubulin (Homo sapiens) [7]): Active; IC50 at 72 h [8]: 1.88 µM; viability at 4 µM (HT-29 [9]): 22.8%; inhibition (Tubulin (Sus scrofa)): Dde; viability at 4 µM (HT-29 [10]): 13.2%
0.83 | 1.2 | COc1cc2c(c(OC)c1OC)-c1ccc(OC)c(=O)cc1[C@@H](NC(=O)COCC(=O)O[C@H]1[C@H](O)[C@@H](CO)OC(O)[C@@H]1O)CC2 (some centres not stated) | – | > 10 | – | –
2.93 | 2.2 | COc1cc2c(c(OC)c1OC)-c1ccc(OC)c(=O)cc1[C@@H](NC(=O)COCC(=O)OC[C@H]1OC(O)[C@@H](O)[C@@H](O)[C@@H]1O)CC2 (some centres not stated) | 2.19 | 6.43 | 2.92 | –
0.98 | 0.76 | COc1cc2c(c(OC)c1OC)-c1ccc(OC)c(=O)cc1[C@@H](NC(=O)CCC(=O)O[C@H]1[C@H](O)[C@@H](CO)OC(O)[C@@H]1O)CC2 (some centres not stated) | 7.17 | 7.03 | 9.25 | –
